Assay results published in US20240018123A1, “COMPOUND FOR INHIBITING OR DISINTEGRATING ANDROGEN RECEPTOR, AND PHARMACEUTICAL USE THEREOF” (KOREA RESEARCH INSTITUTE OF CHEMICAL TECHNOLOGY, priority 2020, published 2024).

Legend:
Androgen receptor (AR) = target: T1, Androgen receptor (AR) (Homo sapiens, UniProt P10275, T878A); assay: Assessment of AR proteolytic activity (Western blotting of LNCap cell lysates); type: cell-based; details: 24 hours of treatment, Western blotting quantified with Image J
T1 construct: 5.5×10^5 LNCap cells were injected into each well of a 6-well plate; endogenous in cells; host or cells: LNCaP
T1 sequence (P10275 1-920 T878A): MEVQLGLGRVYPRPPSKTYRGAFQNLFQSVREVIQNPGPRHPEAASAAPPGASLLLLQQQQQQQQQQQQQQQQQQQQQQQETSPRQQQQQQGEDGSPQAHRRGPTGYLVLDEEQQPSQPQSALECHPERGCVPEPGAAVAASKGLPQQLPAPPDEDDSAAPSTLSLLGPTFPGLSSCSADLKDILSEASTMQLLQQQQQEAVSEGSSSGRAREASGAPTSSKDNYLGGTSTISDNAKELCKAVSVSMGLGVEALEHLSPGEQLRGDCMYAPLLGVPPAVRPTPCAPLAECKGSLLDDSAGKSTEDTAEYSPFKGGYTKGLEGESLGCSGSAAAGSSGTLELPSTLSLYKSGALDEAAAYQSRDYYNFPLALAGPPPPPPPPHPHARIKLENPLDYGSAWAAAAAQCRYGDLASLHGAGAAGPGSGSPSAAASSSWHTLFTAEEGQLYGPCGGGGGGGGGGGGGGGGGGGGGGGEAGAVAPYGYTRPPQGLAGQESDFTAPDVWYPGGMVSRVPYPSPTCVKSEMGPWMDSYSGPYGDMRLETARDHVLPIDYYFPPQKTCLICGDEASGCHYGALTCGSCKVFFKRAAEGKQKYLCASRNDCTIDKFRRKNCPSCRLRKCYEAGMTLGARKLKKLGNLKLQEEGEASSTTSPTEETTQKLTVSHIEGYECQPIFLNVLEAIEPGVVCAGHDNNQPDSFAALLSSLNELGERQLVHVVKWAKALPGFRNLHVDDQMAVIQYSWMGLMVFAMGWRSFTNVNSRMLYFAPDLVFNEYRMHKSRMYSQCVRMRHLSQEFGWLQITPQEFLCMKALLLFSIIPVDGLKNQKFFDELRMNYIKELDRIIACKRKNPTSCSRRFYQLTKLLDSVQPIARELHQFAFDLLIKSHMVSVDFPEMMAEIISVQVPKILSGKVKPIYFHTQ
Outline: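 AR degradation read by Western blot densitometry on RIPA lysates (pH 7.5, protease inhibitor cocktail). Lysates came from LNCap cells, 5.5×10^5 per well, exposed to compound for 24 hours.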

Structure (SMILES) | Degradation (1 μM treated in LNCaP, % AR remaining) (Androgen receptor (AR)) | CC50 (VCaP cells)
CC1(C)C(NC(=O)c2ccc(N3CCN(C=C4CCN(c5ccc6nnn(C7CCC(=O)NC7=O)c(=O)c6c5)CC4)CC3)cc2)C(C)(C)C1Oc1ccc(C#N)c(Cl)c1 (stereo not shown) [Example 64, N-((1r,3r)-3-(3-chloro-4-cyanophenoxy)-2,2,4,4-tetramethylcyclobutyl)-4-(4-((1-(3-(2,6-dioxopiperidin-3-yl)-4-oxo-3,4-dihydrobenzo[d][1,2,3]triazin-6-yl)piperidin-4-ylidene)methyl)piperazin-1-yl)benzamide] | 56% | 76.2 nM
CC1(C)C(NC(=O)c2ccc(N3CCN(C=C4CCN(C(=O)C5CN(c6ccc7nnn(C8CCC(=O)NC8=O)c(=O)c7c6)C5)CC4)CC3)cc2)C(C)(C)C1Oc1ccc(C#N)c(Cl)c1 (stereo not shown) [Example 66, N-((1r,3r)-3-(3-chloro-4-cyanophenoxy)-2,2,4,4-tetramethylcyclobutyl)-4-(4-((1-(1-(3-(2,6-dioxopiperidin-3-yl)-4-oxo-3,4-dihydrobenzo[d][1,2,3]triazin-6-yl)azetidine-3-carbonyl)piperidin-4-ylidene)methyl)piperazin-1-yl)benzamide] | 35% | 18.2 nM
CC1(C)[C@H](NC(=O)c2ccc(N3CCN(CC4CCN(CC5CN(c6ccc7nnn(C8CCC(=O)NC8=O)c(=O)c7c6)C5)CC4)CC3)cc2)C(C)(C)[C@H]1Oc1ccc(C#N)c(Cl)c1 (stereo partly shown) [Example 67, N-((1r,3r)-3-(3-chloro-4-cyanophenoxy)-2,2,4,4-tetramethylcyclobutyl)-4-(4-((1-((1-(3-(2,6-dioxopiperidin-3-yl)-4-oxo-3,4-dihydrobenzo[d][1,2,3]triazin-6-yl)azetidin-3-yl)methyl)piperidin-4-yl)methyl)piperazin-1-yl)benzamide] | 88% | 106 nM
CC1(C)C(NC(=O)c2ccc(N3CCN(CC4CCN(CC5CCN(c6ccc7nnn(C8CCC(=O)NC8=O)c(=O)c7c6)CC5)CC4)CC3)cc2)C(C)(C)C1Oc1ccc(C#N)c(Cl)c1 (stereo not shown) [Example 70, N-((1r,3r)-3-(3-chloro-4-cyanophenoxy)-2,2,4,4-tetramethylcyclobutyl)-4-(4-((1-((1-(3-(2,6-dioxopiperidin-3-yl)-4-oxo-3,4-dihydrobenzo[d][1,2,3]triazin-6-yl)piperidin-4-yl)methyl)piperidin-4-yl)methyl)piperazin-1-yl)benzamide] | 99% | 205 nM
CC1(C)C(NC(=O)c2ccc(N3CC4CC3CN4CC3CCN(c4ccc5nnn(C6CCC(=O)NC6=O)c(=O)c5c4)CC3)cc2)C(C)(C)C1Oc1ccc(C#N)c(Cl)c1 (stereo not shown) [Example 72, N-((1r,3r)-3-(3-chloro-4-cyanophenoxy)-2,2,4,4-tetramethylcyclobutyl)-4-(5-((1-(3-(2,6-dioxopiperidin-3-yl)-4-oxo-3,4-dihydrobenzo[d][1,2,3]triazin-6-yl)piperidin-4-yl)methyl)-2,5-diazabicyclo[2.2.1]heptan-2-yl)benzamide] | 92% | 263 nM
CC1(C)[C@H](NC(=O)c2ccc(N3CC4CC3CN4CC3CCN(C(=O)C4CN(c5ccc6nnn(C7CCC(=O)NC7=O)c(=O)c6c5)C4)CC3)cc2)C(C)(C)[C@H]1Oc1ccc(C#N)c(Cl)c1 (stereo partly shown) [Example 73, N-((1r,3r)-3-(3-chloro-4-cyanophenoxy)-2,2,4,4-tetramethylcyclobutyl)-4-(5-((1-(1-(3-(2,6-dioxopiperidin-3-yl)-4-oxo-3,4-dihydrobenzo[d][1,2,3]triazin-6-yl)azetidine-3-carbonyl)piperidin-4-yl)methyl)-2,5-diazabicyclo[2.2.1]heptan-2-yl)benzamide] | 40% | 79.5 nM
CC1(C)C(NC(=O)c2ccc(C3CCN(CCOC4CCN(C(=O)C5CN(c6ccc7nnn(C8CCC(=O)NC8=O)c(=O)c7c6)C5)CC4)CC3)cc2)C(C)(C)C1Oc1ccc(C#N)c(Cl)c1 (stereo not shown) [Example 75, N-((1r,3r)-3-(3-chloro-4-cyanophenoxy)-2,2,4,4-tetramethylcyclobutyl)-4-(1-(2-((1-(1-(3-(2,6-dioxopiperidin-3-yl)-4-oxo-3,4-dihydrobenzo[d][1,2,3]triazin-6-yl)azetidine-3-carbonyl)piperidin-4-yl)oxy)ethyl)piperidin-4-yl)benzamide] | 9% | 30.1 nM
CC1(C)C(NC(=O)c2ccc(C3CCN(CCOC4CCN(c5ccc6nnn(C7CCC(=O)NC7=O)c(=O)c6c5)CC4)CC3)cc2)C(C)(C)C1Oc1ccc(C#N)c(Cl)c1 (stereo not shown) [Example 76, N-((1r,3r)-3-(3-chloro-4-cyanophenoxy)-2,2,4,4-tetramethylcyclobutyl)-4-(1-(2-((1-(3-(2,6-dioxopiperidin-3-yl)-4-oxo-3,4-dihydrobenzo[d][1,2,3]triazin-6-yl)piperidin-4-yl)oxy)ethyl)piperidin-4-yl)benzamide] | 30% | 35 nM
[C-]#[N+]c1ccc(OC2C(C)(C)C(NC(=O)c3ccc(N4CCN(CCc5cn(-c6ccc7nnn(C8CCC(=O)NC8=O)c(=O)c7c6)nn5)CC4)cc3)C2(C)C)cc1Cl (stereo not shown) [Example 77, N-((1r,3r)-3-(3-chloro-4-isocyanophenoxy)-2,2,4,4-tetramethylcyclobutyl)-4-(4-(2-(1-(3-(2,6-dioxopiperidin-3-yl)-4-oxo-3,4-dihydrobenzo[d][1,2,3]triazin-6-yl)-1H-1,2,3-triazol-4-yl)ethyl)piperazin-1-yl)benzamide] | 74% | 46.6 nM
CC1(C)C(NC(=O)c2ccc(-c3cnn(C4CCN(CC5CCN(c6ccc7nnn(C8CCC(=O)NC8=O)c(=O)c7c6)CC5)CC4)c3)cc2)C(C)(C)C1Oc1ccc(C#N)c(Cl)c1 (stereo not shown) [Example 84, N-((1r,3r)-3-(3-chloro-4-cyanophenoxy)-2,2,4,4-tetramethylcyclobutyl)-4-(1-(1-((1-(3-(2,6-dioxopiperidin-3-yl)-4-oxo-3,4-dihydrobenzo[d][1,2,3]triazin-6-yl)piperidin-4-yl)methyl)piperidin-4-yl)-1H-pyrazol-4-yl)benzamide] | 18% | 15.4 nM
CC1(C)C(NC(=O)c2ccc(C#CCC3CCN(c4ccc5nnn(C6CCC(=O)NC6=O)c(=O)c5c4)CC3)cc2)C(C)(C)C1Oc1ccc(C#N)c(Cl)c1 (stereo not shown) [Example 85, N-((1r,3r)-3-(3-chloro-4-cyanophenoxy)-2,2,4,4-tetramethylcyclobutyl)-4-(3-(1-(3-(2,6-dioxopiperidin-3-yl)-4-oxo-3,4-dihydrobenzo[d][1,2,3]triazin-6-yl)piperidin-4-yl)prop-1-yn-1-yl)benzamide] | 21% | 171 nM
CC1(C)C(NC(=O)c2ccc(C#CCC3CCN(C(=O)C4CN(c5ccc6nnn(C7CCC(=O)NC7=O)c(=O)c6c5)C4)CC3)cc2)C(C)(C)C1Oc1ccc(C#N)c(Cl)c1 (stereo not shown) [Example 87, N-((1r,3r)-3-(3-chloro-4-cyanophenoxy)-2,2,4,4-tetramethylcyclobutyl)-4-(3-(1-(1-(3-(2,6-dioxopiperidin-3-yl)-4-oxo-3,4-dihydrobenzo[d][1,2,3]triazin-6-yl)azetidine-3-carbonyl)piperidin-4-yl)prop-1-yn-1-yl)benzamide] | 9% | 31.9 nM
CC1(C)C(NC(=O)c2ccc(C#CCC3CCN(CC4CCN(c5ccc6nnn(C7CCC(=O)NC7=O)c(=O)c6c5)CC4)CC3)cc2)C(C)(C)C1Oc1ccc(C#N)c(Cl)c1 (stereo not shown) [Example 88, N-((1r,3r)-3-(3-chloro-4-cyanophenoxy)-2,2,4,4-tetramethylcyclobutyl)-4-(3-(1-((1-(3-(2,6-dioxopiperidin-3-yl)-4-oxo-3,4-dihydrobenzo[d][1,2,3]triazin-6-yl)piperidin-4-yl)methyl)piperidin-4-yl)prop-1-yn-1-yl)benzamide] | 14% | 14.5 nM
CC1(C)C(NC(=O)c2ccc(-n3cc(CC4CCN(C(=O)C5CN(c6ccc7nnn(C8CCC(=O)NC8=O)c(=O)c7c6)C5)CC4)nn3)cc2)C(C)(C)C1Oc1ccc(C#N)c(Cl)c1 (stereo not shown) [Example 90, N-((1r,3r)-3-(3-chloro-4-cyanophenoxy)-2,2,4,4-tetramethylcyclobutyl)-4-(4-((1-(1-(3-(2,6-dioxopiperidin-3-yl)-4-oxo-3,4-dihydrobenzo[d][1,2,3]triazin-6-yl)azetidine-3-carbonyl)piperidin-4-yl)methyl)-1H-1,2,3-triazol-1-yl)benzamide] | 5% | 19.6 nM
